The source of these data is article PMC7994892, “The M. tuberculosis Rv1523 Methyltransferase Promotes Drug Resistance Through Methylation-Mediated Cell Wall Remodeling and Modulates Macrophages Immune Responses” (Frontiers in Cellular and Infection Microbiology, 2021).

For the experiment, the target named is Rv1523 MTase (Mycobacterium tuberculosis, UniProt Q50584).
Rv1523 MTase, sequence (Q50584 entry or part of it): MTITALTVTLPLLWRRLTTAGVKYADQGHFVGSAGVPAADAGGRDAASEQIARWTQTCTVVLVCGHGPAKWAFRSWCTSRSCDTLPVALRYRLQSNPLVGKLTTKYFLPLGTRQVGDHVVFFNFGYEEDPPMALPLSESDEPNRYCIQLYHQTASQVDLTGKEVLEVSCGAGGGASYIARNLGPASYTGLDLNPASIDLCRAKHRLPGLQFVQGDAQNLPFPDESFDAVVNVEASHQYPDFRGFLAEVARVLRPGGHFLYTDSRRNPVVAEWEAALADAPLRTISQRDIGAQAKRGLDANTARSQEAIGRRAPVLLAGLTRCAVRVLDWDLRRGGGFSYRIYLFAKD

With `C[S+](CC[C@H](N)C(=O)O)C[C@H]1O[C@@H](n2cnc3c(N)ncnc32)[C@H](O)[C@@H]1O` (stereo partly shown) [S-adenosyl methionine], the “coupled colorimetric SAM methyltransferase assay, 510 nm” value is on record as “Rv1523 MTase was able to transfer methyl group from SAM to the cell wall component”.
